By IC50 is commonly meant the concentration needed to halve the response being measured.

The values that follow come from patent US9139587B2, “N1-pyrazolospiroketone acetyl-CoA carboxylase inhibitors” (Pfizer Inc., priority 2009, dated 2015).

Assay [1] concerns the target T1, recombinant human ACC2 (rhACC2) (Homo sapiens, UniProt O00763, V2141I).
T1 construct: a full length Cytomax clone of ACC2 was purchased from Cambridge Bioscience Limited; made in house; host or cells: CHO cells (tetracycline-induced, pcDNA5 FRT TO-TOPO)
The assay is described as follows: recombinant hACC2 Transcreener assay (direct inhibition of ACC2 activity). Type of assay: biochemical. The note with it: Transcreener ADP detection FP assay, 50 μM ATP, 30 μM acetyl-CoA, 50 min at 25° C. The method in brief:
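Full-length human ACC2 was expressed in CHO cells and avidin-purified. ADP formation was measured by Transcreener FP in 50 mM HEPES pH 7.2 with 30 μM acetyl-CoA, 50 μM ATP, 8 mM KHCO3 and 5 mM citrate. Reactions ran 50 min at 25 °C with 1% DMSO, then 1 h with stop/detect reagent.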

Assay [2] deals with T2, recombinant human ACC1 (rhACC1) (Homo sapiens, UniProt Q13085, DEL44-44).
T2 construct: recombinant baculovirus containing full length human ACC1 cDNA; made in house; host or cells: SF9 insect cells (baculovirus)
Put plainly: recombinant hACC1 Transcreener assay (direct inhibition of ACC1 activity). Type of assay: biochemical. The note with it: Transcreener ADP detection FP assay, 50 μM ATP, 30 μM acetyl-CoA, 120 min at 25° C. The essentials:
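Full-length human ACC1 from baculovirus-infected SF9 cells, dephosphorylated with lambda phosphatase. Reaction in 50 mM HEPES pH 7.2 with 30 μM acetyl-CoA, 50 μM ATP, 10 mM KHCO3, 120 min at 25° C; ADP detected by Transcreener fluorescence polarisation.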

T1 sequence (O00763 whole entry V2141I): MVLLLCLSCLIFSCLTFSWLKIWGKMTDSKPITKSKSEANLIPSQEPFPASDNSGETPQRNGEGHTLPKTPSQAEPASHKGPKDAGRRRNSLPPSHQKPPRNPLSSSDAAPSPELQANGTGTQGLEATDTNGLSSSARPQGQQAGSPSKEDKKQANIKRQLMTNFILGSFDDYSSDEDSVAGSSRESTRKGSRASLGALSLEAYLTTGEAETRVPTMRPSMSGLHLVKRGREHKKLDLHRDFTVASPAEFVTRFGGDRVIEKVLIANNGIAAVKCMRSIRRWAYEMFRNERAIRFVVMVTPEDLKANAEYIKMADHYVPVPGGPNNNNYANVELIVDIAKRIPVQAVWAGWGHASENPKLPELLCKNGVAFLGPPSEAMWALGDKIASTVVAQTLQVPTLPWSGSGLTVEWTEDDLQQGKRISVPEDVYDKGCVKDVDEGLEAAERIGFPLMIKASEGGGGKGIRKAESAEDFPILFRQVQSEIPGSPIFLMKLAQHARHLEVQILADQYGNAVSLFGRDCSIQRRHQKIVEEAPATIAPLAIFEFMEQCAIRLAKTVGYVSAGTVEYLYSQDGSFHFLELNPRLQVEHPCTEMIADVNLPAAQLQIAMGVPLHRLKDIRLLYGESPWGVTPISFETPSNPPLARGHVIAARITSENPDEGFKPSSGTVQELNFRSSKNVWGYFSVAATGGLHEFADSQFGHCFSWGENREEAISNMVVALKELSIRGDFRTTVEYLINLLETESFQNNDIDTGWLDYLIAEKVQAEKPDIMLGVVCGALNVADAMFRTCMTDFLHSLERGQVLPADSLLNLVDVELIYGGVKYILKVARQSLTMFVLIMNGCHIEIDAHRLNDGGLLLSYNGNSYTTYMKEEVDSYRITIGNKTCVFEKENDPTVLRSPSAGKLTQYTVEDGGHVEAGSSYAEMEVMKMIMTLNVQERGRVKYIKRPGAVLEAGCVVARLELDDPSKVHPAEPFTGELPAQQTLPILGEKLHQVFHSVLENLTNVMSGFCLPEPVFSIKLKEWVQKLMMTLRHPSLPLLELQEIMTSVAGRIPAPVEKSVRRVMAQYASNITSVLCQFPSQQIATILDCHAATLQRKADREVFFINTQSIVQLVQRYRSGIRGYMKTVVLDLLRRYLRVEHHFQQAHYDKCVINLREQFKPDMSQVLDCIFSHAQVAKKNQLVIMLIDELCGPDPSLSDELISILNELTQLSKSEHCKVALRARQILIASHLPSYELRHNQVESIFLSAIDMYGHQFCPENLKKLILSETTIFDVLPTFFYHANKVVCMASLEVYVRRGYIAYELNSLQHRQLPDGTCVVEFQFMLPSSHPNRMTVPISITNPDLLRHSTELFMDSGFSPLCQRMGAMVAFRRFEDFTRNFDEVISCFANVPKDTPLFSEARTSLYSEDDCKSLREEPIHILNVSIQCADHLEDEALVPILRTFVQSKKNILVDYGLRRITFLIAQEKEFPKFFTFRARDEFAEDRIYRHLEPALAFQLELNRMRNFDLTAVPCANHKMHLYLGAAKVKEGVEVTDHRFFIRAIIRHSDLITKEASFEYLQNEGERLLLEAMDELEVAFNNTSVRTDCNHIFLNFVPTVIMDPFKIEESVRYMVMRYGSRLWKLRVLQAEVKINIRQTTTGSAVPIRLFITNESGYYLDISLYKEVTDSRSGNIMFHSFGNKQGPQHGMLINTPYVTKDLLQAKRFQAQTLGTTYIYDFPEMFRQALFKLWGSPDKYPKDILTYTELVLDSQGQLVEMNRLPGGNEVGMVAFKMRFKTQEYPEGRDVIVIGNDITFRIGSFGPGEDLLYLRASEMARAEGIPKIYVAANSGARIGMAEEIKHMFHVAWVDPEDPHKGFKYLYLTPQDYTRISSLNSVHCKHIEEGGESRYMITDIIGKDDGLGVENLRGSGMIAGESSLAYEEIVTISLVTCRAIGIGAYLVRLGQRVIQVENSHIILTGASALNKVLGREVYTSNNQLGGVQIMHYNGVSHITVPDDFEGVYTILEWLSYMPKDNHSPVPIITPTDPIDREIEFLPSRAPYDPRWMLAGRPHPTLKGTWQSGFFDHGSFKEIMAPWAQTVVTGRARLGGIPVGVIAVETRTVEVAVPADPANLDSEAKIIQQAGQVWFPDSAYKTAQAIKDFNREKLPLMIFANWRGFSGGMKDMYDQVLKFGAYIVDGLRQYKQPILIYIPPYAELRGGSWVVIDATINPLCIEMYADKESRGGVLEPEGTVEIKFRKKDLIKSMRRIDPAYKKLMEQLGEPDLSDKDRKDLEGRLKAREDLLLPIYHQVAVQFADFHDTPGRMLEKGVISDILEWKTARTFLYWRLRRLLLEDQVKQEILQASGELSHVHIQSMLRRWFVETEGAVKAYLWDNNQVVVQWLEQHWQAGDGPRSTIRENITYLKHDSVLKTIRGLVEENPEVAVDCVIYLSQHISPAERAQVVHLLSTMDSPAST

For `CC(C)n1ncc2c1C(=O)C(C)C1(CCN(C(=O)c3ccc4[nH]ncc4c3)CC1)C2` (single isomer, unassigned; (+)) [Example 5A-1, (+)-1′-(1H-indazole-5-carbonyl)-1-isopropyl-6-methyl-4,6-dihydrospiro[indazole-5,4′-piperidin]-7(1H)-one], the IC50 was 866 nM in assay [1] and 4480 nM in assay [2].

As to `Cc1cc(C(=O)N2CCC3(CC2)CC(=O)c2c(cnn2C2CCOC2)C3)ccc1Cl` (stereo not shown) [Example 1A-5], the IC50 is 127 nM in assay [1] and 800 nM in assay [2].

Regarding `CC(C)(C)n1ncc2c1C(=O)CC1(CCN(C(=O)c3cc4ccncc4[nH]3)CC1)C2` [Example 11A-73], the IC50 in assay [1] and in assay [2] was 37.4 nM each time.

On to `CC(C)n1ncc2c1C(=O)CC1(CCN(C(=O)c3cnc4cn[nH]c4c3)CC1)C2` [Example 11A-31], for which the IC50 in assay [1] turned out to be 83.4 nM; in assay [2], 117 nM.

Take `CC(C)(C)n1ncc2c1C(=O)CC1(CCN(C(=O)c3nc4ccccc4nc3N)CC1)C2` [Example 2A-39]: the IC50 in assay [1] worked out at 122 nM; in assay [2] it was 527 nM.

`CC(C)(C)n1ncc2c1C(=O)CC1(CCN(C(=O)c3ccn4cncc4c3)CC1)C2` [Example 11A-32]: the IC50 in assay [1] is 96.4 nM; in assay [2], 155 nM.

As to `Cc1ncc(C(=O)N2CCC3(CC2)CC(=O)c2c(cnn2C(C)C)C3)c(N)n1` [Example 2A-15], the IC50 in assay [1] amounted to 775 nM; in assay [2], 2030 nM.

Take `CC(C)n1ncc2c1C(=O)CC1(CCN(C(=O)c3cnc4[nH]cnc4c3)CC1)C2` [Example 11A-33]: the IC50 was 93.1 nM in assay [1] and 272 nM in assay [2].

As to `CC(C)(C)n1ncc2c1C(=O)CC1(CCN(C(=O)c3cc4ccccn4c3)CC1)C2` [Example 11A-36], the IC50 in assay [1] turned out to be 75.6 nM; in assay [2], 194 nM.

For the molecule `CC(C)n1ncc2c1C(=O)CC1(CCN(C(=O)c3nn(-c4ccccc4)nc3N)CC1)C2` [Example 11A-6], the IC50 in assay [1] worked out at 459 nM; in assay [2] it was 989 nM.

In the case of `CC(C)n1ncc2c1C(=O)CC1(CCN(C(=O)c3ccc4c(c3)[nH]c(=O)n4C)CC1)C2` [Example 2A-46], the half-maximal inhibitory concentration (IC50) in assay [1] was found to be 29.5 nM; in assay [2], 167 nM.

Take `CC(C)(C)n1ncc2c1C(=O)CC1(CCN(C(=O)c3cc(F)c4[nH]ncc4c3)CC1)C2` [Example 2A-44]: the IC50 in assay [1] stood at 30.2 nM; in assay [2] it was 106 nM.

Take `CC(C)n1ncc2c1C(=O)CC1(CCN(C(=O)c3cc4cccnc4[nH]3)CC1)C2` [Example 2A-20]: the IC50 was found to be 93 nM in assay [1] and 121 nM in assay [2].

`CC(C)n1ncc2c1C(=O)CC1(CCN(C(=O)c3cnc(-c4ccccn4)[nH]3)CC1)C2` [Example 11A-37]: the IC50 came to 463 nM in assay [1] and 1030 nM in assay [2].

On to `CC(C)(C)n1ncc2c1C(=O)CC1(CCN(C(=O)c3ccc(N4CCOCC4)nc3)CC1)C2` [Example 11A-22], for which the values for the IC50 in assay [1] and in assay [2] were 539 nM and 1260 nM, respectively.

Turning to `Cc1nn(C(C)C)c2c1CC1(CCN(C(=O)c3ccc4[nH]cnc4c3)CC1)CC2=O` [Example 7A-1, 1′-(1H-benzo[d]imidazole-5-carbonyl)-1-isopropyl-3-methyl-4,6-dihydrospiro[indazole-5,4′-piperidin]-7(1H)-one], the IC50 in assay [1] amounted to 39.8 nM; in assay [2] it was 63.2 nM.

In the case of `Cc1ccc(O)c(C(=O)N2CCC3(CC2)CC(=O)c2c(cnn2C(C)C)C3)n1` [Example 11A-49], the 50% inhibitory concentration (IC50) in assay [1] is 4910 nM; in assay [2], 13500 nM.

For `CC(C)n1ncc2c1C(=O)CC1(CCN(C(=O)c3c[nH]c4ncccc34)CC1)C2` [Example 2A-71], the IC50 in assay [1] came to 387 nM; in assay [2], 1060 nM.

For `CCn1ncc2c1C(=O)CC1(CCN(C(=O)c3ccc(Cl)c(C)c3)CC1)C2` [Example 2A-7], the IC50 in assay [1] was determined as 965 nM; in assay [2], 4340 nM.

Regarding `CC(C)(C)n1ncc2c1C(=O)CC1(CCN(C(=O)c3ccc4cn[nH]c4c3)CC1)C2` [Example 11A-74], the IC50 was found to be 16.8 nM in assay [1] and 23.7 nM in assay [2].

For `CC(C)n1ncc2c1C(=O)CC1(CCN(C(=O)c3cccc(-c4c[nH]cn4)c3)CC1)C2` [Example 11A-3], the values for the IC50 in assay [1] and in assay [2] were 25.4 nM and 74.7 nM, respectively.

Turning to `CC(C)(C)n1ncc2c1C(=O)CC1(CCN(C(=O)c3ccc4[nH]c(=O)[nH]c4c3)CC1)C2` [Example 2A-29], the IC50 in assay [1] was found to be 9.81 nM; in assay [2], 24.1 nM.

On to `CC(C)n1ncc2c1C(=O)CC1(CCN(C(=O)c3cnc4cc[nH]c4c3)CC1)C2` [Example 2A-19], for which the IC50 in assay [1] was 22.1 nM; in assay [2], 57.4 nM.

Turning to `Cc1cc(C(=O)N2CCC3(CC2)CC(=O)c2c(cnn2C(C)c2ccccc2)C3)ccc1Cl` (stereo not shown) [Example 2A-6], the values for the IC50 in assay [1] and in assay [2] were 88.8 nM and 640 nM, respectively.

`CC(C)(C)n1ncc2c1C(=O)CC1(CCN(C(=O)c3cc4cccnc4[nH]3)CC1)C2` [Example 12A-1, 1-tert-butyl-1′-(1H-pyrrolo[2,3-b]pyridine-2-carbonyl)-4,6-dihydrospiro[indazole-5,4′-piperidin]-7(1H)-one]: the IC50 was 67.3 nM in assay [1] and 39.5 nM in assay [2].

With `CNc1nc(C)ccc1C(=O)N1CCC2(CC1)CC(=O)c1c(cnn1C(C)(C)C)C2` [Example 11A-30], the IC50 in assay [1] stood at 106 nM; in assay [2] it was 224 nM.

`CC(C)n1ncc2c1C(=O)CC1(CCN(C(=O)c3cc4ccncc4[nH]3)CC1)C2` [Example 2A-64]: the figures for the IC50 in assay [1] and in assay [2] were 253 nM and 229 nM, respectively.

Turning to `CC(C)n1ncc2c1C(=O)CC1(CCN(C(=O)c3cnc4c(cnn4C)c3N)CC1)C2` [Example 2A-58], the IC50 in assay [1] was found to be 74.1 nM; in assay [2], 280 nM.

As for `Cc1ccc(O)c(C(=O)N2CCC3(CC2)CC(=O)c2c(cnn2C(C)(C)C)C3)n1` [Example 11A-44], the half-maximal inhibitory concentration (IC50) in assay [1] is 4600 nM; in assay [2], 4170 nM.
